In patent US20220168427A1 (Ranok Therapeutics (Hangzhou) Co. Ltd., priority 2019, published 2022):

How the values were obtained:
[1] = target: HSP90α (Homo sapiens, UniProt P07900); experiment: HSP90α Binding Fluorescent Polarization (FP) Assay; details: competition with FITC-geldanamycin; read-out: HSP90 Binding Potency
Outline: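 Duplicate wells held BSA buffer, FITC-geldanamycin tracer, compound (3-fold dilution plate spanning 40 μM–2.0 nM) and recombinant protein diluted to 28 μg/ml before addition. Polarization read at 30, 60 and 120 min, 25 °C. Background-corrected mP values gave IC50 through a four-parameter inhibitor-response fit.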

[2] = target: T1, BRD4 (BD1+BD2) (Homo sapiens, UniProt O60885); details: read-out: BRD4 Binding Potency
T1 construct: 1.8 μg/ml recombinant BRD4 (BD1+BD2 domains) protein

[3] = target: T2, BRD4 (Homo sapiens, UniProt O60885); experiment: BRD4 Degradation Flow Cytometry Assay in MV4-11 cells; assay type: cell-based; details: 24 hr
T2 construct: endogenous in cells; host or cells: MV4-11
Experimental: Protein Degradation Flow Cytometry
MV4-11 cells were plated in a 24-well tissue culture plate at a density of 350,000 cells/450 μL/well and incubated in 37° C./5% CO2 for 1 hr. Cells were then treated with compounds at various concentrations and incubated in 37° C./5% CO2 for 24 hr. Cells were harvested, washed once, counted and 200 μL of 1% paraformaldehyde/PBS was added and incubated for 15 min at room temperature. 200 μL of 1×PBS/0.4% Triton X-100 was added and incubated for 15 min at 4° C. Cells were washed three times and resuspended in 50 μL of 1×PBS/0.2% Triton X-100. 2 μL/10^6 cells of anti-BRD4 antibody (ABCAM, #128874) was added and mixed by pipetting up and down. Cells were incubated for 30 min at room temperature in the dark, washed three times and resuspended in 50 μL of 1×PBS/0.2% Triton X-100. Goat anti-rabbit IgG H&L antibody (1:2000 dilution) was added and mixed by pipetting up and down and incubated for 30 min at room temperature in the dark. Finally, cells were washed three times and resuspended in 200 μL of PBS for flow cytometric analysis.
(§1) % Inhibition=100−(D−B)/(S−B)*100%.
S: The fluorescence intensity of MV4-11 with antibody
D: The fluorescence intensity in the presence of different compound dilutions with antibody
B: The fluorescence intensity of MV4-11 only

[4] = test system: MV4-11 cells; experiment: MV4-11 Cell Cytotoxicity Assay; assay type: cell-based, human; details: human, MV4-11 cells, CCK-8
Source text: as §1
S: The absorbance of the maximum (cells with DMSO)
B: The absorbance of the minimum (medium with DMSO)

[5] = test system: MV4-11 xenograft; experiment: MV4-11 AML tumor xenograft study in mice
Experimental: (§2) Tumor Xenograft Studies in Mice
MV4-11 acute myeloid leukemia and SU-DHL-4 diffuse large B-cell lymphoma (ATCC, #CRL-2957) cells were cultured in medium supplemented with 10% fetal bovine serum at 37° C./5% CO2. 5×10^6 MV-4-11 or 1×10^7 SU-DHL-4 cells were collected and re-suspended in 0.1 mL of serum-free media with Matrigel (1:1 v/v) per mouse for subcutaneous inoculation in isoflurane anesthetized male BALB/c nude or C.B-17 scid mice, respectively (treated in accordance with AAALAC animal welfare guidelines). When the average tumor volumes reached 100-200 mm^3, tumor volume outliers were removed and the remaining animals randomly divided into groups of 6-8 with similar average tumor volumes in each group. […] […] The appearance and behavior of each mouse was observed and recorded daily. Body weights and tumor volumes were measured and recorded every 2-4 days and the results were expressed as group means±SEM. Pairwise statistical comparisons between groups were performed by one-way ANOVA, and p<0.05 was considered statistically significant.

[6] = test system: SU-DHL-4 xenograft; experiment: SU-DHL-4 DLBCL tumor xenograft study in mice
Experimental: as §2
5×10^6 MV-4-11 or 1×10^7 SU-DHL-4 cells were collected and re-suspended in 0.1 mL of serum-free media with Matrigel (1:1 v/v) per mouse for subcutaneous inoculation in isoflurane anesthetized male BALB/c nude or C.B-17 scid mice, respectively (treated in accordance with AAALAC animal welfare guidelines). When the average tumor volumes reached 100-200 mm^3, tumor volume outliers were removed and the remaining animals randomly divided into groups of 6-8 with similar average tumor volumes in each group. […] Animals were intravenously dosed at 25 mg/kg, 50 mg/kg or 100 mg/kg 1×/week for 3 or 4 weeks. The appearance and behavior of each mouse was observed and recorded daily. Body weights and tumor volumes were measured and recorded every 2-4 days and the results were expressed as group means±SEM. Pairwise statistical comparisons between groups were performed by one-way ANOVA, and p<0.05 was considered statistically significant.

[7] = 100 mg/kg intravenously 1×/week, after 4 weeks of dosing

Compound	IC50 [1]	IC50 [2]	BRD4 degradation in flow cytometry assay, in words [3]	IC50 at 72 h [4]	further results
Cc1sc2c(c1C)C(c1ccc(Cl)cc1)=N[C@H](CC(=O)N1CCC(CN3CCN(Cc4ccc(-n5c(O)nnc5-c5cc(C(C)C)c(O)cc5O)cc4)CC3)CC1)c1nnc(C)n1-2 [Compound 5, 2-((6R)-4-(4-chlorophenyl)-2,3,9-trimethyl-6H-thieno[3,2-f][1,2,4]triazolo[4,3-a][1,4]diazepin-6-yl)-1-(4-((4-(4-(3-(2,4-dihydroxy-5-isopropylphenyl)-5-hydroxy-4H-1,2,4-triazol-4-yl)benzyl)piperazin-1-yl)methyl)piperidin-1-yl)ethanone, trifluoroacetic acid]	100 to 1000 nM	> 1000 nM	does not degrade BRD4		
Cc1sc2c(c1C)C(c1ccc(Cl)cc1)=N[C@@H](CC(=O)NCC(=O)NCC1CCN(C(=O)C3CCN(Cc4ccc(-n5c(O)nnc5-c5cc(C(C)C)c(O)cc5O)cc4)CC3)C1)c1nnc(C)n1-2 (stereo partly drawn) [Compound 47, 2-((S)-4-(4-chlorophenyl)-2,3,9-trimethyl-6H-thieno[3,2-f][1,2,4]triazolo[4,3-a][1,4]diazepin-6-yl)-N-(2-(((1-(1-(4-(3-(2,4-dihydroxy-5-isopropylphenyl)-5-hydroxy-4H-1,2,4-triazol-4-yl)benzyl)piperidine-4-carbonyl)pyrrolidin-3-yl)methyl)amino)-2-oxoethyl)acetamide, trifluoroacetic acid]	< 100 nM	< 100 nM		< 100 nM	degradation of BRD2, BRD3 and BRD4, in words ([3]; flow cytometry): only induced significant degradation of BRD4
CC(=O)N1CCC(CN2CCN(Cc3ccc(-n4c(O)nnc4-c4cc(C(C)C)c(O)cc4O)cc3)CC2)CC1 [HSP90 binder, 1-(4-((4-(4-(3-(2,4-dihydroxy-5-isopropylphenyl)-5-hydroxy-4H-1,2,4-triazol-4-yl)benzyl)piperazin-1-yl)methyl)piperidin-1-yl)ethan-1-one, reference compound]			no substantial BRD4 degradation was observed		
(+)-JQ1 [reference compound]			no substantial BRD4 degradation was observed		tumor growth inhibition ([5]; 25 mg/kg intraperitoneal dosing 1×/day): moderate tumor growth inhibition; animal deaths and body weights ([5]; any group): No animal deaths or significant effects on body weights were observed
Cc1nn(-c2ccc(C(N)=O)c(NCCOCCN3CCN(C(=O)C[C@@H]4N=C(c5ccc(Cl)cc5)c5c(sc(C)c5C)-n5c(C)nnc54)CC3)c2)c2c1C(=O)CC(C)(C)C2 [Compound 24, 2-((2-(2-(4-(2-((6S)-4-(4-chlorophenyl)-2,3,9-trimethyl-6H-thieno[3,2-f][1,2,4]triazolo[4,3-a][1,4]diazepin-6-yl)acetyl)piperazin-1-yl)ethoxy)ethyl)amino)-4-(3,6,6-trimethyl-4-oxo-4,5,6,7-tetrahydro-1H-indazol-1-yl)benzamide]	> 1000 nM	> 1000 nM		100 to 1000 nM	
CC[C@@H](C)Nc1cc(C(=O)NC2C[C@H]3CC[C@H](C2)N3c2ccc(C(=O)Nc3ccc(CN4CCN(CC5CCN(C(=O)C[C@@H]6N=C(c7ccc(Cl)cc7)c7c(sc(C)c7C)-n7c(C)nnc76)CC5)CC4)cc3)cn2)c(C)cc1C(N)=O (stereo partly drawn) [Compound 26, 5-((R)-sec-butylamino)-N1-((1R,5R)-8-(5-((4-((4-((1-(2-((6S)-4-(4-chlorophenyl)-2,3,9-trimethyl-6H-thieno[3,2-f][1,2,4]triazolo[4,3-a][1,4]diazepin-6-yl)acetyl)piperidin-4-yl)methyl)piperazin-1-yl)methyl)phenyl)carbamoyl)pyridin-2-yl)-8-azabicyclo[3.2.1]octan-3-yl)-2-methylterephthalamide, formic acid]	> 1000 nM	100 to 1000 nM		< 100 nM	
Cc1sc2c(c1C)C(c1ccc(Cl)cc1)=N[C@@H](CC(=O)N1CCC(CN3CCN(Cc4ccc(-n5c(O)nnc5-c5ccc(O)cc5O)cc4)CC3)CC1)c1nnc(C)n1-2 [Compound 4, 2-((6S)-4-(4-chlorophenyl)-2,3,9-trimethyl-6H-thieno[3,2-f][1,2,4]triazolo[4,3-a][1,4]diazepin-6-yl)-1-(4-((4-(4-(3-(2,4-dihydroxyphenyl)-5-hydroxy-4H-1,2,4-triazol-4-yl)benzyl)piperazin-1-yl)methyl)piperidin-1-yl)ethanone, trifluoroacetic acid]	> 1000 nM	< 100 nM		100 to 1000 nM	
CCc1cc(-c2nnc(C(=O)NCC(F)(F)F)n2-c2ccc(CN3CCN(CC4CCN(C(=O)C[C@@H]5N=C(c6ccc(Cl)cc6)c6c(sc(C)c6C)-n6c(C)nnc65)CC4)CC3)cc2)c(O)cc1O.Cl [Compound 78, 4-(4-((4-((1-(2-((6S)-4-(4-chlorophenyl)-2,3,9-trimethyl-6H-thieno[3,2-f][1,2,4]triazolo[4,3-a][1,4]diazepin-6-yl)acetyl)piperidin-4-yl)methyl)piperazin-1-yl)methyl)phenyl)-5-(5-ethyl-2,4-dihydroxyphenyl)-N-(2,2,2-trifluoroethyl)-4H-1,2,4-triazole-3-carboxamide hydrochloride]	100 to 1000 nM	100 to 1000 nM			tumor growth inhibition [6, 7]: significant tumor growth inhibition; tumor vs control (T/C) value [6, 7]: 28%; animal deaths and body weights ([6]; any dose level): No animal deaths or significant effects on body weights were observed
CCc1cc(-c2nnc(O)n2-c2ccc(CN3CCN(CC4CCN(CC[C@@H]5N=C(c6ccc(Cl)cc6)c6c(sc(C)c6C)-n6c(C)nnc65)CC4)CC3)cc2)c(O)cc1O [Compound 2, 4-(4-(4-((4-((1-(2-((6S)-4-(4-chlorophenyl)-2,3,9-trimethyl-6H-thieno[3,2-f][1,2,4]triazolo[4,3-a][1,4]diazepin-6-yl)ethyl)piperidin-4-yl)methyl)piperazin-1-yl)methyl)phenyl)-5-hydroxy-4H-1,2,4-triazol-3-yl)-6-ethylbenzene-1,3-diol, trifluoroacetic acid]	< 100 nM	> 1000 nM		100 to 1000 nM	
